Reference: patent publication US20200288710A1, “SUBSTITUTED SULPHONAMIDES FOR CONTROLLING ANIMAL PESTS” (BAYER CROPSCIENCE AKTIENGESELLSCHAFT, priority 2016, published 2020)

What was measured:
Type in all cases: in vivo
[1] = system: Meloidogyne incognita; experiment: Meloidogyne incognita test; conditions: 336 h, lettuce, after 14 days, read-out: nematicidal efficacy (formation of galls)
Description: Meloidogyne incognita Test Solvent: 125.0 parts by weight of acetone To produce a suitable active compound preparation, 1 part by weight of active compound is mixed with the stated amount of solvent and the concentrate is diluted with water to the desired concentration. Vessels are filled with sand, active compound solution, an egg/larvae suspension of the southern rootknot nematode (Meloidogyne incognita) and lettuce seeds. The lettuce seeds germinate and the plants develop. The galls develop on the roots. After 14 days, the nematicidal efficacy in % is determined by the formation of galls. 100% means that no galls were found; 0% means that the number of galls on the treated plants corresponds to the untreated control.

[2] = system: Myzus persicae; experiment: Myzus persicae oral test; conditions: 120 h, 20 ppm, oral uptake, after 5 days, read-out: efficacy
Description: Myzus persicae—Oral Test Solvent: 100 parts by weight of acetone To produce a suitable preparation of active compound, 1 part by weight of active compound is dissolved using the specified parts by weight of solvent and made up with water until the desired concentration is attained. 50 μl of the active compound preparation are transferred into microtitre plates and made up to a final volume of 200 μl with 150 μl of IPL41 insect medium (33%+15% sugar). Subsequently, the plates are sealed with parafilm, which a mixed population of green peach aphids (Myzus persicae) within a second microtitre plate is able to puncture and imbibe the solution through it. After 5 days, the efficacy in % is determined. 100% means that all the aphids have been killed; 0% means that no aphids have been killed.

[3] = system: Myzus persicae; experiment: Myzus persicae spray test (Chinese cabbage leaf discs); conditions: foliar, 120 h, 500 g/ha, after 5-6 days, read-out: efficacy
Description: Myzus persicae—Spray Test Solvent: 78 parts by weight of acetone • • 1.5 parts by weight of dimethylformamide Emulsifier: alkylaryl polyglycol ether To produce a suitable preparation of active compound, 1 part by weight of active compound is dissolved using the specified parts by weight of solvent and made up with water containing an emulsifier concentration of 1000 ppm until the desired concentration is attained. To produce further test concentrations, the formulation is diluted with emulsifier-containing water. Discs of Chinese cabbage leaves (Brassica pekinensis) infested by all stages of the green peach aphid (Myzus persicae) are sprayed with an active compound preparation of the desired concentration. After 5-6 days, the efficacy in % is determined. 100% means that all the aphids have been killed; 0% means that no aphids have been killed.

SMILES	pest or weed control at 20 ppm [1]	pest or weed control at 20 ppm [2]	pest or weed control at 500 g/ha [3]
COc1ccccc1S(=O)(=O)NC(=O)c1cn(C)c(-c2ccc(Cl)c(Cl)c2)n1 [Example 537]	100%		
Cn1cc(C(=O)NS(=O)(=O)Nc2ccccc2)nc1-c1c(F)cccc1F [Example 507]	90%		
Cc1ccc(C(C)C)cc1S(=O)(=O)NC(=O)c1cn(C)c(-c2c(F)cccc2F)n1 [Example 396]	90%		
CCc1[nH]c(-c2ccccc2Cl)nc1C(=O)NS(=O)(=O)c1ccccc1Cl [Example 243]	90%		
Cc1ccccc1NS(=O)(=O)NC(=O)c1cn(C)c(-c2c(F)cccc2F)n1 [Example 504]	90%		
Cn1cc(C(=O)NS(=O)(=O)Nc2ccc(Cl)cc2)nc1-c1c(F)cccc1F [Example 506]	90%		
Cn1cc(C(=O)NS(=O)(=O)c2ccccc2Cl)nc1-c1ccccc1Oc1ccccc1 [Example 484]	100%		
COc1ccccc1S(=O)(=O)NC(=O)c1cn(C)c(-c2ccccc2-c2ccccc2)n1 [Example 534]	90%		
Cn1cc(C(=O)NS(=O)(=O)c2ccccc2Cl)nc1-c1ccc(F)c(F)c1 [Example 544]	100%		
CCc1[nH]c(-c2cccc(C)c2C)nc1C(=O)NS(=O)(=O)c1ccccc1Cl [Example 472]	90%		
Cc1ccccc1S(=O)(=O)NC(=O)c1cn(C)c(-c2ccccc2C(C)C)n1 [Example 473]	90%		
COc1ccc(Cl)c(S(=O)(=O)NC(=O)c2c(Cl)nc(-c3ccccc3Cl)n2C)c1 [Example 203]	100%		
Cc1cccc(C2CCCC2)c1S(=O)(=O)NC(=O)c1cn(C)c(-c2c(F)cccc2F)n1 [Example 362]	100%		
O=C(NS(=O)(=O)c1ccccc1Cl)c1cc(-c2ncccc2Cl)n(-c2ccccc2Cl)n1 [Example 264]	100%		
CCn1c(C(=O)NS(=O)(=O)c2ccccc2C)nc(-c2c(F)cccc2F)c1C [Example 417]	100%		
COc1ccc(S(=O)(=O)NC(=O)c2cn(C)c(-c3c(F)cccc3F)n2)cn1 [Example 344]	90%		
CCOc1cccc(C(C)C)c1S(=O)(=O)NC(=O)c1cn(C)c(-c2c(F)cccc2F)n1 [Example 384]	90%		
CCSc1ccccc1-c1nc(C(=O)NS(=O)(=O)c2ccccc2C)cn1C [Example 475]	90%		
CCNc1ccccc1S(=O)(=O)NC(=O)c1cn(C)c(-c2ccccc2Cl)n1 [Example 251]	90%		

SMILES	pest or weed control at 20 ppm [1]	pest or weed control at 20 ppm [2]	pest or weed control at 500 g/ha [3]
Cn1cc(C(=O)NS(=O)(=O)c2ccccc2OC(C)(C)C)nc1-c1c(F)cccc1F [Example 376]	90%		
CCc1[nH]c(-c2cccc(Cl)c2)nc1C(=O)NS(=O)(=O)c1ccccc1C [Example 129]	90%		
Cn1cc(C(=O)NS(=O)(=O)c2c(Cl)cccc2Cl)nc1-c1c(F)cc(F)cc1F [Example 4]	90%		
COc1ccc(Cl)c(S(=O)(=O)NC(=O)c2nc(-c3ccccc3F)[nH]c2C)c1 [Example 627]	90%		
Cc1ccccc1S(=O)(=O)NC(=O)c1cc(-c2ccccc2Cl)n(-c2ncccc2Cl)n1 [Example 261]	90%		
Cc1cc(C(=O)NS(=O)(=O)c2ccccc2Br)nn1-c1ccccc1C(F)(F)F [Example 292]	90%		
CCc1[nH]c(-c2c(F)cccc2F)nc1C(=O)NS(=O)(=O)C(C)C [Example 126]		90%	90%
CCn1cc(C(=O)NS(=O)(=O)c2ccccc2C)nc1-c1ccccc1Cl [Example 22]		100%	100%
CCc1ccsc1S(=O)(=O)NC(=O)c1cn(C)c(-c2ncccc2F)n1 [Example 604]		90%	90%
CCc1cccc(OS(C)(=O)=O)c1S(=O)(=O)NC(=O)c1cn(C)c(-c2c(F)cccc2F)n1 [Example 342]		100%	100%
Cc1ccccc1S(=O)(=O)NC(=O)c1cn(C)c(-c2cccnc2Cl)n1 [Example 491]		100%	100%
Cn1cc(C(=O)NS(=O)(=O)CC(F)(F)F)nc1-c1ccccc1Cl [Example 66]		100%	100%
COc1ccccc1S(=O)(=O)NC(=O)c1cn(C)c(-c2ccccc2Cl)n1 [Example 59]		100%	90%
COc1ccc(Cl)c(S(=O)(=O)NC(=O)c2nc(-c3c(F)cccc3F)n(C)n2)c1 [Example 12]		90%	90%
COc1ccc([N+](=O)[O-])c(S(=O)(=O)NC(=O)c2cn(C)c(-c3c(F)cccc3F)n2)c1 [Example 389]		100%	90%
COc1ccccc1S(=O)(=O)NC(=O)c1cn(C)c(-c2c(F)cccc2F)n1 [Example 116]		100%	100%
CCn1cc(S(=O)(=O)NC(=O)c2cn(C)c(-c3c(F)cccc3F)n2)c(C)n1 [Example 181]		90%	100%
COCCS(=O)(=O)NC(=O)c1cn(C)c(-c2c(F)cccc2Cl)n1 [Example 150]		90%	90%
Cn1c(C(=O)NS(=O)(=O)c2ccccc2Br)cnc1-c1c(F)cccc1F [Example 162]		100%	90%

SMILES	pest or weed control at 20 ppm [1]	pest or weed control at 20 ppm [2]	pest or weed control at 500 g/ha [3]
Cn1cc(C(=O)NS(=O)(=O)c2ccccc2Cl)nc1-c1ccccc1OC(F)(F)F [Example 459]		100%	90%
Cn1cc(C(=O)NS(=O)(=O)c2c(F)cccc2Br)nc1-c1c(F)cccc1F [Example 432]		100%	100%
CCc1ccc(OC)c(S(=O)(=O)NC(=O)c2cn(C)c(-c3ccccc3Cl)n2)c1 [Example 278]		100%	100%
CCc1ccccc1S(=O)(=O)NC(=O)c1cc(C)n(-c2ncccc2Br)n1 [Example 298]		100%	100%
Cn1cc(C(=O)NS(=O)(=O)c2c(Cl)cccc2C(F)(F)F)nc1-c1ncccc1F [Example 609]		100%	90%
Cn1cc(C(=O)NS(=O)(=O)c2ccccc2Cl)nc1-c1ccccc1S(C)(=O)=O [Example 483]		100%	90%
Cc1ccccc1S(=O)(=O)NC(=O)c1cc(C)n(-c2ncccc2Br)n1 [Example 297]		100%	90%
COc1ccc(OC)c(S(=O)(=O)NC(=O)c2cn(C)c(-c3cccc(Cl)c3Cl)n2)c1 [Example 462]		90%	90%
COc1ccccc1S(=O)(=O)NC(=O)c1cn(C)c(-c2sccc2Cl)n1 [Example 549]		100%	100%
Cc1ccccc1-c1nc(C(=O)NS(=O)(=O)c2ccccc2Cl)cn1C [Example 97]		100%	100%
Cn1cc(C(=O)NS(=O)(=O)c2ccccc2F)nc1-c1c(F)cccc1F [Example 117]		90%	100%
Cc1ccc(F)cc1S(=O)(=O)NC(=O)c1cn(C)c(-c2cccnc2Cl)n1 [Example 566]		100%	100%
COc1cc(C)ccc1S(=O)(=O)NC(=O)c1cn(C)c(-c2c(F)cccc2F)n1 [Example 447]		100%	90%
COc1ccc(Br)c(S(=O)(=O)NC(=O)c2cn(C)c(-c3ncccc3F)n2)c1 [Example 607]		100%	90%
Cn1cc(C(=O)NS(=O)(=O)c2sc(Cl)cc2Br)nc1-c1c(F)cccc1F [Example 211]		100%	100%
Cc1ccc(F)c(S(=O)(=O)NC(=O)c2cn(C)c(-c3c(F)cccc3F)n2)c1 [Example 454]		100%	90%
COc1ccc(Cl)c(S(=O)(=O)NC(=O)c2cc(C)n(-c3ncccc3Br)n2)c1 [Example 301]		90%	100%
Cn1cc(C(=O)NS(=O)(=O)c2ccccc2Cl)nc1-c1cccnc1Cl [Example 490]		100%	90%
